This note sets out measurements from patent US20060173067A1, “Small molecules for the treatment of atherosclerosis” (The Regents of the University of California, priority 2004, published 2006).

Entries after “also recorded” stand apart in the source; their conditions may differ. Where a SMILES comes first, the peptide text is derived from it. [ ]: non-standard residue; d: D form. The star is where a group is joined. Boc = CC(C)(C)OC(=O)*; OtBu = CC(C)(C)O*; tBu = CC(C)(C)*

The subject of series [1] is apoE null mice. Put plainly: Atherosclerosis in apoE null mice fed SEQ ID NO:5 in chow for 12 weeks. The conditions noted are these: 200 μg/gm chow, p=0.012, FIG. 16. In kind it is in vivo.
Series [2] is described as follows: Solubility of peptides in ethyl acetate. Type of series: physicochemical. The conditions noted are these: 10 mg/mL added, room temperature 30 minutes, FIG. 3. On the procedure:
To evaluate solubility in ethyl acetate, each peptide was weighed and added to a centrifuge tube and ethyl acetate (HPLC grade; residue after evaporation <0.0001%) was added to give a concentration of 10 mg/mL. The tubes were sealed, vortexed and kept at room temperature for 30 minutes with vortexing every 10 minutes. The tubes were then centrifuged for 5 minutes at 10,000 rpm and the supernatant was removed to a previously weighed tube. The ethyl acetate was evaporated under argon and the tubes weighed to determine the amount of peptide that had been contained in the supernatant. The percent of the originally added peptide that was dissolved in the supernatant is shown on the Y-axis. he data are mean±S.D. Control represents sham treated tubes; SEQ ID NO:3 and SEQ ID NO:4 were both synthesized from all D-amino acids. The sequence Boc-Phe-Arg-Glu-Leu-OtBu (SEQ ID NO:5, SEQ ID NO:250 in copending application U.S. Ser. No. 10/649,378) was synthesized from all L-amino acids.

Series [3] in a line: Interaction of peptide with DMPC in an aqueous environment (dialysis, negative-stain electron micrograph). Type of series: physicochemical. The conditions noted are these: for appearance of solution after dialysis (deoxycholate removed): DMPC: peptide 1:10 wt:wt in PBS; for Bilayer dimension of stacked bilayers / Spacing between bilayers in the stack / Vesicular structures, size: DMPC: peptide 1:10 wt:wt, aqueous environment. The procedure:
FIG. 4 SEQ ID NO:4 forms 7.5 nm particles when mixed with DMPC in an aqueous environment. To 1 mg/ml of DMPC suspension in phosphate buffered saline (PBS) was added 10% deoxycholate until the DMPC was dissolved. SEQ ID NO: 4 or SEQ ID NO:3 were added (DMPC: peptide; 1:10; wt:wt) and the reaction mixture dialyzed. […] The figure is an electron micrograph prepared with negative staining and at 147,420× magnification. The arrows indicate SEQ ID NO: 4 particles measuring 7.5 nm (they appear as small white particles).
To 1 mg/ml of DMPC suspension in phosphate buffered saline (PBS) was added 10% deoxycholate until the DMPC was dissolved. Peptides, SEQ ID NO:4 or SEQ ID NO:3, were added (DMPC: peptide; 1:10; wt:wt) and the reaction mixture dialyzed.

The test system of series [4] is LDL-induced monocyte chemotactic activity in human artery wall cocultures. Kind of series: Monocyte chemotactic activity in human artery wall cell coculture with HDL of peptide-fed apoE null mice. In kind it is in vivo. The following applies: female apoE null mice, 200 μg/gm chow, 15 weeks, 50 μg/mL mouse HDL, FIG. 13. An excerpt: Lipoproteins, human artery wall cocultures, and monocytes can be prepared and monocyte chemotactic activity (MCA) determined as previously described (Van Lenten et al. (2002) Circulation, 106: 1127-1132). Induction of MCA by a standard control LDL can be determined in the absence or presence of the subject's HDL. Values in the absence of HDL are typically normalized to 1.0. Values greater than 1.0 after the addition of HDL indicate pro-inflammatory HDL; values less than 1.0 indicate anti-inflammatory HDL.
(§1) Female apoE null mice at age 8 weeks were given no additions to their diet (Chow) or received 200 μg/gm chow of SEQ ID NO:3 (+254) or 200 μg/gm chow of SEQ ID NO: 4 (+258), both synthesized from all D-amino acids. After 15 weeks the mice were bled and their plasma fractionated by FPLC and their HDL (mHDL) tested in a human artery wall cell coculture. A standard human LDL (at 100 μg/mL of LDL-cholesterol) was added alone (LDL) or not added (no addition) or was added with 50 μg/mL of normal human HDL (hHDL) or 50 μg/mL of mouse HDL (mHDL) to human artery wall cocultures and the resulting monocyte chemotactic activity was determined and plotted on the Y-axis.

The nature of series [5]: Interaction of peptide with DMPC in an aqueous environment (dialysis, negative-stain electron micrograph). Type of series: physicochemical. The following applies: DMPC: peptide 1:10 wt:wt.
Series [6] deals with apoE null mice. Put plainly: Atherosclerosis in apoE null mice fed peptide in chow for 15 weeks. The following applies: female apoE null mice, 200 μg/gm chow. Type of series: in vivo. The procedure:
The aortic root (aortic sinus) lesion score was determined in the apoE null mice described in FIG. 13. The number of mice in each group is shown (n=) at the bottom of the figure and a representative section for each group is shown at the top of the figure.
The percent aortic surface containing atherosclerotic lesions was determined in en face preparations in the apoE null mice described in FIG. 13. The number of mice in each group is shown (n=) at the bottom of the left panel and a representative aorta for mice fed chow alone or chow supplemented with. SEQ ID NO:4 is shown in the right panel.
as §1

The nature of series [7]: Solubility in aqueous buffer at pH 7.0. Type of series: physicochemical. The following applies: pH 7.0, data not shown.

`CC(C)C[C@H](NC(=O)[C@H](CCC(=O)O)NC(=O)[C@H](CCCNC(=N)N)NC(=O)[C@H](Cc1ccccc1)NC(=O)OC(C)(C)C)C(=O)OC(C)(C)C` [SEQ ID NO:5, Boc-Phe-Arg-Glu-Leu-OtBu] (Boc-FREL-OtBu): the “% Aortic Surface Area with Lesions in en face preparations” value in series [1] was “significantly decreases atherosclerosis”. The “solubility in ethyl acetate” value in series [2] was “very soluble”.

As for `CC(C)(C)OC[C@@H](NC(=O)[C@@H](CCC(=O)O)NC(=O)[C@@H](CCCNC(=N)N)NC(=O)[C@@H](CCCCNC(=O)OC(C)(C)C)NC(=O)OC(C)(C)C)C(=O)OC(C)(C)C` [SEQ ID NO:4, Boc-Lys(εBoc)-Arg-Glu-Ser(tBu)-OtBu] (Boc-[dK](Boc)[dR][dE][dS](tBu)-OtBu), the “appearance of solution after dialysis (deoxycholate removed)” value in series [3] is on record as “remained clear”. Besides, the “Bilayer dimension of stacked bilayers” value is recorded as 3.4 to 4.1 nm in series [3] and 3.4-4.1 nm in series [3] (listed as SEQ ID NO: 6). Moreover, the “Spacing between bilayers in the stack” value is on record as “approximately 2 nm” in series [3] and 2.0 nm in series [3] (listed as SEQ ID NO: 6). Moreover, the results for the “Vesicular structures, size” value in series [3], in series [3] (listed as SEQ ID NO: 4) and in series [3] (listed as SEQ ID NO: 6) were “approximately 38 nm”, “approximately 38 nm” and 38 nm, respectively. For the same compound, the results for the “HDL rendered anti-inflammatory (monocyte chemotactic activity)” value in series [4] and in series [4] (listed as SEQ ID NO: 4) were “renders apoE null HDL anti-inflammatory” and “rendered anti-inflammatory”, respectively. Also, the “diameter of particles formed with DMPC (Size "Nascent HDL Particles")” value in series [5] (listed as SEQ ID NO: 4) is listed as “approximately 7.5 nm”; in series [5] (listed as SEQ ID NO: 6) it was 7.5 nm. Also, the “solubility in ethyl acetate” value in series [2] is given as “very soluble; also recorded: highly soluble”. Besides, the “aortic root (aortic sinus) atherosclerosis, lesion score” value is given as “significantly decreases” in series [6] (FIG. 14) and “significantly reduced” in series [6] (FIG. 14, listed as SEQ ID NO: 4). The “aortic atherosclerosis in en face preparations, percent aortic surface containing lesions” value in series [6] (FIG. 15) was “significantly decreases”; in series [6] (FIG. 15, listed as SEQ ID NO: 4) it was “significantly decreased”. The “solubility in aqueous buffer at pH 7.0” value in series [7] is “soluble”.

For the compound `CC(C)(C)OC[C@@H](NC(=O)[C@@H](CCCNC(=N)N)NC(=O)[C@@H](CCC(=O)O)NC(=O)[C@@H](CCCCNC(=O)OC(C)(C)C)NC(=O)OC(C)(C)C)C(=O)OC(C)(C)C` [SEQ ID NO:3, Boc-Lys(εBoc)-Glu-Arg-Ser(tBu)-OtBu] (Boc-[dK](Boc)[dE][dR][dS](tBu)-OtBu), the “appearance of solution after dialysis (deoxycholate removed)” value in series [3] is listed as “turbid”. Besides, in series [3] (conditions of FIG. 4, data not shown), the “formation of 7.5 nm particles, stacked lipid-peptide bilayers, 38 nm vesicular structures” value is given as “did not form”. Further, the “HDL rendered anti-inflammatory (monocyte chemotactic activity)” value in series [4] was “not”. Further, in series [2], the “solubility in ethyl acetate” value is on record as “poorly soluble”. For the same compound, the “aortic root (aortic sinus) atherosclerosis, lesion score” value in series [6] (FIG. 14) is given as “not”. The “aortic atherosclerosis in en face preparations, percent aortic surface containing lesions” value in series [6] (FIG. 15) is recorded as “not”.
